Data from patent US20030166645A1, “Novel nitrofuran-containing heterocyclic compounds and uses thereof” (priority 2001, published 2003).
Values after ≈ are worked out from the molar mass of the structure shown.

How the values were obtained:
[1] = system: Bacteroides thetaiotaomicron; type: cell-based; settings: agar dilution, anaerobic, 48 h
[2] = system: Bacteroides vulgatus; test: Antimicrobial agar dilution test of anaerobic bacteria (MIC); type: cell-based; settings: 48 h
[3] = system: Bacteroides fragilis; test: as above; type: cell-based; settings: 48 h
[4] = system: M. catarrhalis; test: Microdilution antimicrobial susceptibility test (MIC); type: cell-based; settings: broth microdilution, 18-24 h, MIC = 90% inhibition of growth; for MIC: Moraxella catarrhalis, read-out: MIC M. catarrhalis MIC2
[5] = system: P aeruginosa; test: as above; type: cell-based; settings: broth microdilution, 18-24 h, MIC = 90% inhibition of growth; for MIC: read-out: MIC P aeruginosa MIC2
[6] = system: S pneumoniae; test: as above; type: cell-based; settings: broth microdilution, 18-24 h, CO2-enriched atmosphere, MIC = 90% inhibition of growth; for MIC: read-out: MIC S pneumoniae MIC6
[7] = system: H influenzae; test: as above; type: cell-based; settings: broth microdilution, 18-24 h, MIC = 90% inhibition of growth; for MIC: read-out: MIC H influenzae MIC4
[8] = system: E coli (ImpA); test: as above; type: cell-based; settings: broth microdilution, 18-24 h, MIC = 90% inhibition of growth; for MIC: read-out: MIC E coli (ImpA) MIC9
Experimental: Microdilution Antimicrobial Susceptibility Test Assay
Stock solutions of tested compounds were prepared in N,N-dimethylformamide (DMF) at a concentration of 5 mg/mL. Working solutions of the tested compounds were then prepared from the stock solutions, in Mueller-Hinton broth (MHB) with a starting concentration of 64 μg/mL.
Bacterial inocula were prepared from overnight culture (i.e., one fresh colony from agar plate in 5 ml MHB; H. influenzae was grown in MHB with the addition of yeast extract, haematin, and NAD), centrifuged 2×5 min/3000 rpm (for S. pneumoniae and H. influenzae, 2×10 min/3000 rpm), and dispensed in 5 ml of fresh MHB each time, such that the bacterial suspension is diluted to obtain 100 colony forming units (cfu) in a microplate well (100 μl total volume).
Microplate wells were filled with two-fold dilutions of test compound (50 Al), starting with 64 μg/ml. Wells were then filled with 50 μl of bacterial inoculum (final volume: 100 μl/well). The plates were incubated at 37° C. for 18-24 hours (S. pneumoniae was grown in a CO2-enriched atmosphere).

[9] = system: S cerevisiae; test: as above; type: cell-based; settings: broth microdilution, 18-24 h, MIC = 90% inhibition of growth; for MIC: read-out: MIC S cerevisiae MIC7
[10] = system: E coli; test: as above; type: cell-based; settings: broth microdilution, 18-24 h, MIC = 90% inhibition of growth; for MIC: read-out: MIC E coli MIC2
[11] = system: S aureus; test: as above; type: cell-based; settings: broth microdilution, 18-24 h, MIC = 90% inhibition of growth; for MIC: read-out: MIC S aureus MIC2
[12] = system: E faecalis; test: as above; type: cell-based; settings: broth microdilution, 18-24 h, MIC = 90% inhibition of growth; for MIC: read-out: MIC E faecalis MIC2
[13] = system: E. coli; test: Systemic bacterial infection model, mice infected with E. coli

CCN1CCN(C(=O)N[C@@H](C(=O)N[C@@H]2C(=O)N3[C@@H]2SC(C)(C)[C@@H]3C(=O)O)c2ccccc2)C(=O)C1=O [Piperacillin]
MIC Bacteroides thetaiotaomicron [1]: 16 µg/mL (≈ 30.9 µM) | MIC Bacteroides vulgatus [2]: 128 µg/mL (≈ 247 µM) | MIC Bacteroides fragilis ([3]; first B. fragilis column): 2 µg/mL (≈ 3.86 µM) | MIC Bacteroides fragilis ([3]; second B. fragilis column): 16 µg/mL (≈ 30.9 µM) | MIC Bacteroides fragilis ([3]; third B. fragilis column): 2 µg/mL (≈ 3.86 µM)

C[C@@H](O)[C@H]1C(=O)N2C(C(=O)O)=C(SCCN=CN)C[C@H]12 [Imipenem]
MIC Bacteroides thetaiotaomicron [1]: < 0.125 µg/mL | MIC Bacteroides vulgatus [2]: < 0.125 µg/mL | MIC Bacteroides fragilis ([3]; first B. fragilis column): < 0.125 µg/mL | MIC Bacteroides fragilis ([3]; second B. fragilis column): < 0.125 µg/mL | MIC Bacteroides fragilis ([3]; third B. fragilis column): < 0.125 µg/mL

O=[N+]([O-])c1ccc(-c2nnc(S(=O)(=O)O)n2C2CCCCC2)o1 [Compound 131]
MIC M. catarrhalis MIC2 [4]: 8 µg/mL (≈ 23.4 µM) | MIC P aeruginosa MIC2 [5]: >64 µg/mL | MIC S pneumoniae MIC6 [6]: 64 µg/mL (≈ 187 µM) | MIC H influenzae MIC4 [7]: 64 µg/mL (≈ 187 µM) | MIC E coli (ImpA) MIC9 [8]: >64 µg/mL | MIC S cerevisiae MIC7 [9]: >64 µg/mL | MIC E coli MIC2 [10]: >64 µg/mL | MIC S aureus MIC2 [11]: >64 µg/mL | MIC E faecalis MIC2 [12]: >64 µg/mL

COc1cc(Cc2cnc(N)nc2N)cc(OC)c1OC [Trimethoprim, reference compound]
MIC [4]: 32 µg/mL (≈ 110 µM) | MIC [5]: > 64 µg/mL | MIC [6]: 8 µg/mL (≈ 27.6 µM) | MIC [7]: < 0.12 µg/mL | MIC [8]: < 0.12 µg/mL | MIC [9]: > 64 µg/mL | MIC [10]: 0.25 µg/mL (≈ 0.861 µM) | MIC [11]: 2 µg/mL (≈ 6.89 µM) | MIC [12]: < 0.12 µg/mL

CNS(=O)(=O)c1nnc(-c2ccc([N+](=O)[O-])o2)n1C [Compound 106, 5-[2-(5-Nitro)furyl]-4-methyl-4H-1,2,4-triazole-3-methyl Sulfonamide]
MIC [4]: 2 µg/mL (≈ 6.96 µM) | MIC [5]: > 64 µg/mL | MIC [6]: 64 µg/mL (≈ 223 µM) | MIC [7]: 32 µg/mL (≈ 111 µM) | MIC [8]: 4 µg/mL (≈ 13.9 µM) | MIC [9]: 64 µg/mL (≈ 223 µM) | MIC [10]: 8 µg/mL (≈ 27.8 µM) | MIC [11]: > 64 µg/mL | MIC [12]: > 64 µg/mL

CCC[C@@H]1C[C@@H](C(=O)N[C@@H]([C@H]2O[C@H](SC)[C@H](O)[C@@H](O)[C@H]2O)[C@H](C)Cl)N(C)C1 [Clindamycin]
MIC Bacteroides vulgatus [2]: < 0.125 µg/mL | MIC Bacteroides fragilis ([3]; first B. fragilis column): 1 µg/mL (≈ 2.35 µM) | MIC Bacteroides fragilis ([3]; second B. fragilis column): 1 µg/mL (≈ 2.35 µM) | MIC Bacteroides fragilis ([3]; third B. fragilis column): 1 µg/mL (≈ 2.35 µM)

O=[N+]([O-])c1ccc(-c2nnc(S(=O)(=O)O)n2Cc2ccccc2)o1 [Compound 128]
MIC M. catarrhalis MIC2 [4]: 16 µg/mL (≈ 45.7 µM) | MIC P aeruginosa MIC2 [5]: >64 µg/mL | MIC S pneumoniae MIC6 [6]: 64 µg/mL (≈ 183 µM) | MIC H influenzae MIC4 [7]: 64 µg/mL (≈ 183 µM) | MIC E coli (ImpA) MIC9 [8]: >64 µg/mL | MIC S cerevisiae MIC7 [9]: >64 µg/mL | MIC E coli MIC2 [10]: >64 µg/mL | MIC S aureus MIC2 [11]: >64 µg/mL | MIC E faecalis MIC2 [12]: >64 µg/mL

O=[N+]([O-])c1ccc(-c2nnc(S)n2-c2ccc(Oc3ccccc3)cc2)o1 [Compound 143]
MIC M. catarrhalis MIC2 [4]: <0.12 µg/mL | MIC P aeruginosa MIC2 [5]: >64 µg/mL | MIC S pneumoniae MIC6 [6]: 0.5 µg/mL (≈ 1.31 µM) | MIC H influenzae MIC4 [7]: >64 µg/mL | MIC E coli (ImpA) MIC9 [8]: <0.12 µg/mL | MIC S cerevisiae MIC7 [9]: >64 µg/mL | MIC E coli MIC2 [10]: >64 µg/mL | MIC S aureus MIC2 [11]: 0.25 µg/mL (≈ 0.657 µM) | MIC E faecalis MIC2 [12]: 1 µg/mL (≈ 2.63 µM)

O=[N+]([O-])c1ccc(-c2nnc(S(=O)(=O)O)n2-c2ccccc2)o1 [Compound 127]
MIC M. catarrhalis MIC2 [4]: 32 µg/mL (≈ 95.2 µM) | MIC P aeruginosa MIC2 [5]: >64 µg/mL | MIC S pneumoniae MIC6 [6]: >64 µg/mL | MIC H influenzae MIC4 [7]: >64 µg/mL | MIC E coli (ImpA) MIC9 [8]: 64 µg/mL (≈ 190 µM) | MIC S cerevisiae MIC7 [9]: >64 µg/mL | MIC E coli MIC2 [10]: >64 µg/mL | MIC S aureus MIC2 [11]: >64 µg/mL | MIC E faecalis MIC2 [12]: >64 µg/mL

O=[N+]([O-])c1ccc(-c2nnc(S)n2-c2cccc(Cl)c2)o1 [Compound 140]
MIC M. catarrhalis MIC2 [4]: <0.12 µg/mL | MIC P aeruginosa MIC2 [5]: >64 µg/mL | MIC S pneumoniae MIC6 [6]: 2 µg/mL (≈ 6.2 µM) | MIC H influenzae MIC4 [7]: 4 µg/mL (≈ 12.4 µM) | MIC E coli (ImpA) MIC9 [8]: 0.5 µg/mL (≈ 1.55 µM) | MIC S cerevisiae MIC7 [9]: >64 µg/mL | MIC E coli MIC2 [10]: >64 µg/mL | MIC S aureus MIC2 [11]: 1 µg/mL (≈ 3.1 µM) | MIC E faecalis MIC2 [12]: 16 µg/mL (≈ 49.6 µM)

Cn1c(-c2ccc([N+](=O)[O-])o2)nnc1S(=O)(=O)O [Compound 107, 5-[2-(5-Nitro)furyl]-4-methyl-4H-1,2,4-triazole-3-sulfonic Acid]
MIC [4]: 1 µg/mL (≈ 3.65 µM) | MIC [5]: > 64 µg/mL | MIC [6]: 32 µg/mL (≈ 117 µM) | MIC [7]: 16 µg/mL (≈ 58.3 µM) | MIC [8]: 4 µg/mL (≈ 14.6 µM) | MIC [9]: 64 µg/mL (≈ 233 µM) | MIC [10]: 2 µg/mL (≈ 7.29 µM) | Survival (%) ([13]; Study #4, 50 mg/kg IP QD × 3, 6 days observation): 70% | Survival (%) ([13]; Study #4, 75 mg/kg IP QD × 3, 6 days observation): 90% | MIC [11]: 16 µg/mL (≈ 58.3 µM) | MIC [12]: > 64 µg/mL

O=[N+]([O-])c1ccc(-c2nnc(S)n2Cc2ccco2)o1 [Compound 125]
MIC M. catarrhalis MIC2 [4]: 0.5 µg/mL (≈ 1.71 µM) | MIC P aeruginosa MIC2 [5]: >64 µg/mL | MIC S pneumoniae MIC6 [6]: 8 µg/mL (≈ 27.4 µM) | MIC H influenzae MIC4 [7]: 4 µg/mL (≈ 13.7 µM) | MIC E coli (ImpA) MIC9 [8]: 4 µg/mL (≈ 13.7 µM) | MIC S cerevisiae MIC7 [9]: >64 µg/mL | MIC E coli MIC2 [10]: >64 µg/mL | MIC S aureus MIC2 [11]: 8 µg/mL (≈ 27.4 µM) | MIC E faecalis MIC2 [12]: 64 µg/mL (≈ 219 µM)

O=[N+]([O-])c1ccc(-c2nnc(S(=O)(=O)O)n2-c2ccc(Cl)cc2)o1 [Compound 132]
MIC M. catarrhalis MIC2 [4]: 4 µg/mL (≈ 10.8 µM) | MIC P aeruginosa MIC2 [5]: >64 µg/mL | MIC S pneumoniae MIC6 [6]: 32 µg/mL (≈ 86.3 µM) | MIC H influenzae MIC4 [7]: 8 µg/mL (≈ 21.6 µM) | MIC E coli (ImpA) MIC9 [8]: 16 µg/mL (≈ 43.2 µM) | MIC S cerevisiae MIC7 [9]: 64 µg/mL (≈ 173 µM) | MIC E coli MIC2 [10]: >64 µg/mL | MIC S aureus MIC2 [11]: 32 µg/mL (≈ 86.3 µM) | MIC E faecalis MIC2 [12]: >64 µg/mL

Cn1c(-c2ccc([N+](=O)[O-])o2)nnc1S(=O)(=O)Nc1ccccc1 [Compound 123]
MIC M. catarrhalis MIC2 [4]: 1 µg/mL (≈ 2.86 µM) | MIC P aeruginosa MIC2 [5]: >64 µg/mL | MIC S pneumoniae MIC6 [6]: 8 µg/mL (≈ 22.9 µM) | MIC H influenzae MIC4 [7]: 16 µg/mL (≈ 45.8 µM) | MIC E coli (ImpA) MIC9 [8]: 16 µg/mL (≈ 45.8 µM) | MIC S cerevisiae MIC7 [9]: >64 µg/mL | MIC E coli MIC2 [10]: >64 µg/mL | MIC S aureus MIC2 [11]: 64 µg/mL (≈ 183 µM) | MIC E faecalis MIC2 [12]: 64 µg/mL (≈ 183 µM)
